Assay results from patent US20070116825A1, “Confection with High-Potency Sweetener” (THE COCA-COLA COMPANY, priority 2005, published 2007).

Columns and labels:
[1] = Rate of dissolution in H2O at 25° C. of rebaudioside A polymorph and amorphous forms; assay type: physicochemical
Text: The purification of rebaudioside A by crystallization as described above results in the formation of at least three different polymorphs: Form 1: a rebaudioside A hydrate; Form 2: an anhydrous rebaudioside A; Form 3: a rebaudioside A solvate. In addition to the at least three polymorph forms of rebaudioside A, the purification of rebaudioside A may result in the formation of an amorphous form of rebaudioside A, Form 4. The aqueous organic solution and temperature of the purification process influence the resulting polymorph and amorphous forms in the substantially pure rebaudioside A composition. FIGS. 1-5 are exemplary powder x-ray diffraction (XRPD) scans of the polymorph and amorphous forms of rebaudioside A: Form 1 (hydrate), Form 2 (anhydrate), Form 3A (methanol solvate), Form 3B (ethanol solvate), and Form 4 (amorphous), respectively.

[2] = assay type: physicochemical
Protocol: A solution of rebaudioside A (>97% pure by HPLC) was prepared in double distilled water (12.5 gm in 50 mL, 25% concentration) by stirring the mixture at 40° C. for 5 minutes. An amorphous form of rebaudioside A was formed by immediately using the clear solution for spray drying with the Lab-Plant spray drier SD-04 instrument (Lab-Plant Ltd., West Yorkshire, U.K.). The solution was fed through the feed pump into the nozzle atomizer which atomized it into a spray of droplets with the help of a constant flow of nitrogen/air. […] This dry powder (11-12 g, H2O 6.74%) was discharged continuously from the drying chamber and was collected in a bottle.

| Rate of dissolution in H2O at 25° C. ([1]; per 60 minutes) | Rate of dissolution in H2O at 25° C. ([1]; per 5 minutes) | solubility in water at room temperature [2] | Substance |
| --- | --- | --- | --- |
| Very low (<0.2%/ %/60 minutes | – | – | rebaudioside A [Form 1] |
| – | Intermediate (<30%/ %/5 minutes | – | rebaudioside A [Form 2] |
| – | High (>30%/5 %/5 minutes | – | rebaudioside A [Form 3] |
| – | High (>35%/5 %/5 minutes | > 35.0% | rebaudioside A [Form 4] |
